Reference: PubChem BioAssay AID248 (DTP/NCI, 2004)
Values joined by “and” are separate entries in the source; they are usually repeats but may differ in a detail not shown here. Equal entries are not always repeated. Toxic doses and inconclusive results are not listed. Cut-off read from the data, not from the text of the source: active = T/C of 150% or more; inactive = T/C below 125%. Peptide text beside a SMILES is read from it. * marks the point of attachment. Boc = CC(C)(C)OC(=O)*

System: L1210 leukemia ip in BDF1 mice, survival T/C
Assay: NCI In Vivo Anticancer Drug Screen. Data for tumor model L1210 Leukemia (intraperitoneal) in B6D2F1 (BDF1) mice
Conditions: endpoint: mean survival time, higher = longer survival
How it was run: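 Survival endpoint. Drug-treated group vs vehicle group, expressed as T divided by C. Tumor passaged by transplantation.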

[1] = dose: 100.0 mg/kg/injection, schedule: Q04DX002 (ip), vehicle: saline with Tween-80
[2] = dose: 200.0 mg/kg/injection, schedule: Q04DX002 (ip), vehicle: saline with Tween-80
[3] = dose: 100.0 mg/kg/injection, schedule: Q04DX003 (ip), vehicle: Klucel (hydroxypropylcellulose) (HPC)
[4] = dose: 400.0 mg/kg/injection, schedule: Q04DX003 (ip), vehicle: Klucel (hydroxypropylcellulose) (HPC)
[5] = dose: 100.0 mg/kg/injection, schedule: Q01DX009 (ip), vehicle: saline with Tween-80
[6] = dose: 100.0 mg/kg/injection, schedule: Q04DX003 (ip), vehicle: saline with Tween-80
[7] = dose: 200.0 mg/kg/injection, schedule: Q01DX009 (ip), vehicle: saline with Tween-80
[8] = dose: 200.0 mg/kg/injection, schedule: Q04DX003 (ip), vehicle: saline with Tween-80
[9] = dose: 400.0 mg/kg/injection, schedule: Q01DX009 (ip), vehicle: saline with Tween-80
[10] = dose: 400.0 mg/kg/injection, schedule: Q04DX003 (ip), vehicle: saline with Tween-80
[11] = dose: 200.0 mg/kg/injection, schedule: Q04DX003 (ip), vehicle: Klucel (hydroxypropylcellulose) (HPC)
[12] = dose: 100.0 mg/kg/injection, schedule: Q04DX003 (ip), vehicle: saline
[13] = dose: 200.0 mg/kg/injection, schedule: Q04DX003 (ip), vehicle: saline
[14] = dose: 400.0 mg/kg/injection, schedule: Q04DX003 (ip), vehicle: saline
[15] = dose: 100.0 mg/kg/injection, schedule: Q01DX001 (ip), vehicle: saline
[16] = dose: 200.0 mg/kg/injection, schedule: Q01DX001 (ip), vehicle: saline
[17] = dose: 200.0 mg/kg/injection, schedule: Q01DX009 (ip), vehicle: saline
[18] = dose: 400.0 mg/kg/injection, schedule: Q01DX001 (ip), vehicle: saline
[19] = dose: 400.0 mg/kg/injection, schedule: Q01DX009 (ip), vehicle: saline
[20] = dose: 50.0 mg/kg/injection, schedule: Q01DX009 (ip), vehicle: Klucel (hydroxypropylcellulose) (HPC)
[21] = dose: 100.0 mg/kg/injection, schedule: Q01DX009 (ip), vehicle: Klucel (hydroxypropylcellulose) (HPC)

Measured: T/C

CN(C)c1ccc([N+](=O)[O-])cn1
inactive: [1] 97 % of control | [2] 97 % of control

CC(C)(C)OC(=O)NC(C(=O)O)C1=CCC=CC1 (centres undefined)
inactive: [3] 94 % of control | [4] 102 % of control

CCSC(=O)N1c2ccc(OC)cc2C=CC1C#N (centres undefined)
inactive: [5] 119 % of control | [6] 101 % of control | [7] 124 % of control | [8] 97 % of control | [9] 119 % of control | [10] 111 % of control

C=C(C)C(=O)Nc1ccccc1
inactive: [3] 86 % of control | [11] 89 % of control

CN(C)CCOC(=O)c1ccc(N)cc1
inactive: [12] 96 % of control | [13] 98 % of control

CC(C)CC(NC(=O)OC(C)(C)C)C(=O)NC(Cc1c[nH]c2ccccc12)C(=O)N1CCCC1C(=O)NCC(N)=O (centres undefined) (Boc-LWPG-NH2; configuration not given here)
inactive: [12] 93 % of control | [13] 90 % of control | [14] 97 % of control

CC(C)=CCC(CC=C(C)C)c1ccncc1 (tested in a mixture with another compound)
inactive: [15] 96 % of control | [16] 98 % of control

CCN1/C(=C/C(C)=C/c2sc3ccccc3[n+]2CC)Sc2ccccc21
inactive: dose: 1.25 mg/kg/injection, schedule: Q01DX001 (ip), vehicle: other 111 % of control | dose: 2.5 mg/kg/injection, schedule: Q01DX001 (ip), vehicle: other 97 % of control | dose: 5.0 mg/kg/injection, schedule: Q01DX001 (ip), vehicle: other 103 % of control | dose: 25.0 micrograms/kg/injection, schedule: Q01DX001 (ip), vehicle: saline 98 % of control | dose: 25.0 micrograms/kg/injection, schedule: Q01DX009 (ip), vehicle: Klucel (hydroxypropylcellulose) (HPC) 100 % of control | dose: 50.0 micrograms/kg/injection, schedule: Q01DX001 (ip), vehicle: saline 93 % of control | dose: 50.0 micrograms/kg/injection, schedule: Q01DX009 (ip), vehicle: Klucel (hydroxypropylcellulose) (HPC) 101 % of control | dose: 100.0 micrograms/kg/injection, schedule: Q01DX001 (ip), vehicle: saline 104 % of control | dose: 100.0 micrograms/kg/injection, schedule: Q01DX009 (ip), vehicle: Klucel (hydroxypropylcellulose) (HPC) 108 % of control | dose: 200.0 micrograms/kg/injection, schedule: Q01DX001 (ip), vehicle: saline 96 % of control | dose: 200.0 micrograms/kg/injection, schedule: Q01DX009 (ip), vehicle: Klucel (hydroxypropylcellulose) (HPC) 104 % of control | dose: 200.0 micrograms/kg/injection, schedule: Q01DX015 (ip), vehicle: saline 105 % of control | dose: 400.0 micrograms/kg/injection, schedule: Q01DX009 (ip), vehicle: Klucel (hydroxypropylcellulose) (HPC) 97 % of control

O=S(=O)(/C=C/c1ccc(Cl)cc1)c1ccccc1
inactive: [15] 102 % of control | dose: 100.0 mg/kg/injection, schedule: Q01DX009 (ip), vehicle: saline 91 % of control | [16] 104 % of control | [17] 96 % of control | [18] 102 % of control | [19] 94 % of control

CC1(C)C=C(C(Cl)c2ccccc2)C(=O)c2ccccc21 (centres undefined)
inactive: [3] 95 % of control | [11] 101 % of control | [4] 101 % of control

COC(=O)C1CC23CCCC12CC3 (centres undefined)
inactive: dose: 50.0 mg/kg/injection, schedule: Q04DX002 (ip), vehicle: saline with Tween-80 92 % of control | [1] 103 % of control | [2] 92 % of control

OC(c1ccccc1)(c1ccccc1)C1CCC1
inactive: [20] 100 % of control | dose: 75.0 mg/kg/injection, schedule: Q01DX001 (ip), vehicle: Klucel (hydroxypropylcellulose) (HPC) 95 % of control | [21] 94 % of control | dose: 150.0 mg/kg/injection, schedule: Q01DX001 (ip), vehicle: Klucel (hydroxypropylcellulose) (HPC) 101 % of control | dose: 300.0 mg/kg/injection, schedule: Q01DX001 (ip), vehicle: Klucel (hydroxypropylcellulose) (HPC) 98 % of control

C(C#Cc1ccccc1)#Cc1ccccc1
inactive: [12] 94 % of control | [13] 100 % of control | [14] 97 % of control

C(=NC12CC3CC(CC(C3)C1)C2)c1ccccc1
inactive: dose: 25.0 mg/kg/injection, schedule: Q01DX009 (ip), vehicle: saline 106 % of control | dose: 50.0 mg/kg/injection, schedule: Q01DX009 (ip), vehicle: saline 97 % of control | [17] 100 % of control | [19] 104 % of control

CCOC(=O)C(c1ccccc1)N(c1ccccc1)S(=O)(=O)c1ccc(C)cc1 (centres undefined)
inactive: dose: 100.0 mg/kg/injection, schedule: Q01DX001 (ip), vehicle: other 116 % of control | dose: 200.0 mg/kg/injection, schedule: Q01DX001 (ip), vehicle: other 98 % of control | dose: 400.0 mg/kg/injection, schedule: Q01DX001 (ip), vehicle: other 101 % of control

COC(=O)C1OC1c1cc(Cl)cc(Cl)c1OC (centres undefined)
inactive: [15] 100 % of control | [16] 106 % of control | [18] 101 % of control

CC(CO)(CO)N=Cc1cc([N+](=O)[O-])ccc1O
inactive: dose: 100.0 mg/kg/injection, schedule: Q01DX001 (ip), vehicle: carboxymethylcellulose (CMC) 98 % of control | dose: 200.0 mg/kg/injection, schedule: Q01DX001 (ip), vehicle: carboxymethylcellulose (CMC) 98 % of control | dose: 400.0 mg/kg/injection, schedule: Q01DX001 (ip), vehicle: carboxymethylcellulose (CMC) 98 % of control

O=C(CN1CCCCC1)c1ccc(/C=C/c2ccc(Cl)cc2)cc1
inactive: dose: 12.5 mg/kg/injection, schedule: Q01DX009 (ip), vehicle: Klucel (hydroxypropylcellulose) (HPC) 93 % of control | dose: 25.0 mg/kg/injection, schedule: Q01DX009 (ip), vehicle: Klucel (hydroxypropylcellulose) (HPC) 97 % of control | [20] 87 % of control and 88 % of control | [3] 88 % of control | [11] 88 % of control

COc1cccc(NC(=S)C(C#N)C(=O)Nc2cccc(C(F)(F)F)c2)c1 (centres undefined)
inactive: dose: 25.0 mg/kg/injection, schedule: Q04DX002 (ip), vehicle: gum acacia 106 % of control | dose: 50.0 mg/kg/injection, schedule: Q04DX002 (ip), vehicle: gum acacia 109 % of control | dose: 100.0 mg/kg/injection, schedule: Q04DX002 (ip), vehicle: gum acacia 98 % of control and 88 % of control

CCC[CH2][Sn]1([CH2]CCC)[CH2]CC(=O)[O]1
inactive: [1] 103 % of control | [2] 95 % of control | dose: 400.0 mg/kg/injection, schedule: Q04DX002 (ip), vehicle: saline with Tween-80 92 % of control

COC(OC)c1nc(N)[nH]c(=O)c1Cc1ccc(Br)cc1
inactive: dose: 100.0 mg/kg/injection, schedule: Q01DX001 (ip), vehicle: Klucel (hydroxypropylcellulose) (HPC) 105 % of control | [5] 93 % of control | [6] 106 % of control | dose: 200.0 mg/kg/injection, schedule: Q01DX001 (ip), vehicle: Klucel (hydroxypropylcellulose) (HPC) 108 % of control | [7] 102 % of control | [8] 97 % of control | dose: 400.0 mg/kg/injection, schedule: Q01DX001 (ip), vehicle: Klucel (hydroxypropylcellulose) (HPC) 108 % of control | [9] 96 % of control | [10] 97 % of control

OC[P+](CO)(CO)CO
inactive: dose: 25.0 mg/kg/injection, schedule: Q04DX002 (ip), vehicle: saline 113 % of control | dose: 50.0 mg/kg/injection, schedule: Q04DX002 (ip), vehicle: saline 103 % of control | dose: 100.0 mg/kg/injection, schedule: Q04DX002 (ip), vehicle: saline 100 % of control and 109 % of control

NP(=O)(CCl)NC12CC3CC(CC(C3)C1)C2 (centres undefined)
inactive: [20] 86 % of control | [21] 95 % of control | dose: 200.0 mg/kg/injection, schedule: Q01DX009 (ip), vehicle: Klucel (hydroxypropylcellulose) (HPC) 93 % of control

CCN(CC)CCNc1ccc(CO)c(Cl)c1
inactive: dose: 31.25 mg/kg/injection, schedule: Q01DX009 (ip), vehicle: Klucel (hydroxypropylcellulose) (HPC) 92 % of control | dose: 62.5 mg/kg/injection, schedule: Q01DX009 (ip), vehicle: Klucel (hydroxypropylcellulose) (HPC) 89 % of control | dose: 125.0 mg/kg/injection, schedule: Q01DX009 (ip), vehicle: Klucel (hydroxypropylcellulose) (HPC) 106 % of control
